Source: patent publication US20060228395A1, “Vitamin E phosphate/phosphatidylcholine liposomes to protect from or ameliorate cell damage” (priority 2005, published 2006)

Legend:
male albino mice = experiment: Allyl alcohol-induced liver injury in male albino mice (SGPT); assay type: in vivo; settings: allyl alcohol alone, single intraperitoneal dose 50 mg/kg, 4 hours; ± SEM
Description: Influence of vitamin E phosphate/phosphatidylcholine liposomes (see example 1) on Allyl alcohol-induced liver injury was evaluated in male albino mice.

[1] = test system: isolated liver cells (1000×g cell fraction); experiment: Iron-dependent liver cell lipid peroxidation (LCLP); assay type: cell-based; settings: SEM
Liver cells [2] = experiment: Incorporation of labeled choline into phosphatidylcholine (PC biosynthesis) by liver cells with iron; assay type: cell-based; settings: SEM
Source text: The study of effects oil liver cells was also considered based on evaluation of effect on increase in the incorporation of labeled choline into phosphatidylcholine (phosphatidylcholine biosynthesis) by liver cells. Vitamin E phosphate/phosphatidylcholine produced greater beneficial effects than either vitamin E phosphate or phosphatidylcholine.

Liver cells [3] = experiment: Phosphatidylcholine formation in liver cells dysfunctional due to ethanol exposure; assay type: cell-based
Description: Liver cells which had become dysfunctional due to exposure to ethanol were incubated 24 hours with vitamin E phosphate/phosphatidylcholine liposomes. The pmoles of phosphatidylcholine formed per minute/mg protein was then measured with the following results: […]

cultured liver cells = experiment: Reversal of ethanol damage in cultured liver cells (phosphatidylcholine biosynthesis); assay type: cell-based; settings: 96 h, ± SEM
Description: The use of vitamin E phosphate/phosphatidylcholine to effect reversal of damage from ethanol on liver cells was then studied. The cultured liver cells were incubated with 25 mM or 50 mM ethanol for 96 hours, at which time there is significant reduction in liver cell function (phosphatidylcholine biosynthesis). The effect of adding vitamin E phosphate/phosphatidylcholine after 72 hours was studied, and 24 hours later (96 hours after initial exposure to ethanol) values were obtained.

[4] = 1 mM iron plus addition: PC 100 μM, VEP 50 μm, or combination VEP/PC

C=CCO [Allyl alcohol]
SGPT (male albino mice): 330 ± 15 % of control

[Fe] [iron]
LCLP (liver cell lipid peroxidation) ([1]; 1 mM iron alone): 357 ± 12 % control
PC biosynthesis (Liver cells [2]; 1 mM iron alone): 254 ± 9 % control

CCO [ethanol]
phosphatidylcholine formed (Liver cells [3]; cells exposed to ethanol (control 75)): 25 pmoles per minute/mg protein
phosphatidylcholine formed (Liver cells [3]; cells exposed to ethanol, then incubated 24 hours in water): 27 pmoles per minute/mg protein
liver cell function (phosphatidylcholine biosynthesis) (cultured liver cells; 25 mM ethanol alone): 38 ± 2 % control
liver cell function (phosphatidylcholine biosynthesis) (cultured liver cells; 50 mM ethanol alone): 22 ± 1 % control

Cc1c(C)c2c(c(C)c1OP(=O)(O)O)CCC(C)(CCCC(C)CCCC(C)CCCC(C)C)O2 (centres unmarked) [VEP, vitamin E phosphate]
LCLP (liver cell lipid peroxidation) [1, 4]: 167 ± 3 % control
PC biosynthesis (Liver cells [2]; [4]): 145 ± 4 % control

phosphatidylcholine [PC]
LCLP (liver cell lipid peroxidation) [1, 4]: 281 ± 4 % control
PC biosynthesis (Liver cells [2]; [4]): 167 ± 4 % control
